Several values for one entry are separate records, joined by “and”; a condition that tells them apart may be missing. Equal values may be shown once.
How the values were obtained:
[1] = system: GlyT1; test: GlyT1 occupancy and VND by Lassen plot, PET in rhesus monkeys; format: in vivo, rhesus monkey; details: for GlyT1 occupancy: seven regions; for % of VND in VT ACC: anterior cingulate cortex; for % of VND in VT FC: frontal cortex; for % of VND in VT PUT: putamen; for % of VND in VT TC: temporal cortex
Experimental: (§1) PET measurements were performed for 123 min immediately after i.v. injection of radioligand at baseline and after pretreatment with SSR504734. SSR504734 was administered over 15 min, starting 30 min before the radioligand injection. PET measurements were performed on two separate days with two monkeys. One baseline PET measurement and one PET measurement after pretreatment with 1.5 mg/kg of SSR504734 were performed on one monkey. One baseline PET measurement and one PET measurement after pretreatment with 4.5 mg/kg were performed on the other monkey.
GlyT1 occupancy was estimated by applying Lassen plot approach, which can determine nondisplaceable distribution volume (VND) and occupancy using VT values at baseline and after pretreatment. Seven regions (the pons, cerebellum, putamen, frontal cortex, caudate, anterior cingulate cortex, and temporal cortex) were used for the plot.

[2] = molecular target: T1, GlyT1 (Homo sapiens, UniProt P48067); test: in vitro whole-hemisphere autoradiography on human brain slices; format: binding; details: blocker 10 μM
T1 construct: whole-hemisphere autoradiography (ARG) on human brain slices; from tissue; host or cells: post-mortem human brain whole-hemisphere cryosections
T1 sequence (P48067 1-706): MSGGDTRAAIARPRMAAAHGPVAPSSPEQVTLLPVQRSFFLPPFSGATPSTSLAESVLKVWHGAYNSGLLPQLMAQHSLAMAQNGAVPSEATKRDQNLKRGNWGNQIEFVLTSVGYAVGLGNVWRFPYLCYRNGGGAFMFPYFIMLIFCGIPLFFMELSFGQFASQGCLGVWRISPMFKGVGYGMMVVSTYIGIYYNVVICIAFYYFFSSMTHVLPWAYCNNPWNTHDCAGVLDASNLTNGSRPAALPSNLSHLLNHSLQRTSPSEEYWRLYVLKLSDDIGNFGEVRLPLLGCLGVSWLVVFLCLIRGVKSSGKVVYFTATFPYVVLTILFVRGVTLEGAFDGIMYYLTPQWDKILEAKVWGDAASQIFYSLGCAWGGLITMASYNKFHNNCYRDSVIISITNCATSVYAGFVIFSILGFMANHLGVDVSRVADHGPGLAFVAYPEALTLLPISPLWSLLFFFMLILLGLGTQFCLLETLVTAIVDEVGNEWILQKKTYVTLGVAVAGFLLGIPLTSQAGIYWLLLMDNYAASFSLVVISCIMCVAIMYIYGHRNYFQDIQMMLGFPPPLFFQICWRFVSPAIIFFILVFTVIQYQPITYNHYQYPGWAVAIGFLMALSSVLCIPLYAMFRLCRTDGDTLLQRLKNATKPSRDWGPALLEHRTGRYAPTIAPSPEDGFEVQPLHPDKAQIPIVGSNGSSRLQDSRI
Experimental: Human brains without pathology were obtained from the National Institute of Forensic Medicine, Karolinska Institutet (Stockholm, Sweden) as well as from the Department of Forensic and Insurance Medicine, Semmelweis University, Budapest. […] The sectioning of the brains and the autoradiography experiments were performed at the Department of Clinical Neuroscience, Karolinska Institutet. The cryosectioning took place on a Leica cryomacrocut system (San Marcos, CA, USA) [28, 29]. Horizontal sections (100 μm thick, containing cerebral cortex, white matter, cerebellum, and pons) and coronal sections (100 μm thick, containing cerebral cortex, white matter, putamen, and caudate nucleus) were used. […] For comparison with other GlyT1 radioligands, blocking was also made with SSR504734 (10 μM). The slices were rinsed thrice for 3 min each with cold (5°C) washing buffer (120 mM NaCl, 50 mM Tris–HCl, pH = 7.5) and subsequently dipped into cold water. The slides were then placed on an imaging plate (Fujifilm Plate BAS-TR2025, Fujifilm, Tokyo, Japan) for 20 min. The plates were developed, and the resulting images were processed in a Fujifilm BAS-5000 phosphorimager (Fujifilm, Tokyo, Japan). […] The autoradiography (ARG) signal's optical density was measured using Multi Gauge 3.2 image analysis software (Fujifilm, Tokyo, Japan).

[3] = metabolite analysis of plasma by radio-HPLC during PET; format: in vivo, cynomolgus monkey
Experimental: During each PET measurement, venous blood samples were taken from a femoral vein for the measurement of [^11 C]
From the obtained blood samples, plasma was obtained after centrifugation at 2,000 × g for 2 to 4 min and was mixed with 1.4 times the volume of acetonitrile. The supernatant acetonitrile-plasma mixture obtained after centrifugation at 2,000 × g for 2 to 4 min was injected into the radio-HPLC system. HPLC analysis was performed on a Waters μ-Bondapak-C18 column (300 × 7.8 mm, 10 μm) by gradient elution using (a) ammonium formate (100 mM) and (b) acetonitrile at 6.0 mL/min.

[4] = system: GlyT1; test: PET measurements using rhesus monkeys, VT by two-tissue compartment model; format: in vivo, rhesus monkey; design: VT (baseline) WB / VT (baseline) THA / VT (baseline) CB / VT (baseline) CAU / VT (baseline) FC / VT (baseline) ACC / VT (baseline) TC: unit not given here; details: for VT (baseline) ACC / VT (baseline) CAU / VT (baseline) CB / VT (baseline) FC / VT (baseline) Pons / VT (baseline) PUT / VT (baseline) TC / VT (baseline) THA / VT (baseline) WB: 2TC
Experimental: PET measurements were performed using a high-resolution research tomograph (CTI/Siemens Molecular Imaging, Knoxville, TN, USA) with an in-plane resolution less than 1.5 mm FWHM in the center of the FOV [30]. PET data were acquired by list mode. The data were reconstructed with a series of frames (5 × 1 min, 5 × 3 min, 5 × 6 min, and 13 × 10 min) using the Ordinary Poisson-3D-Ordered Subset Expectation Maximization (OP03D-OSEM) algorithm with 10 iterations and 16 subsets including modeling of the points spread function. Image reconstruction was performed on a quad-core PC running a fast reconstruction algorithm.
Anesthesia was induced by intramuscular injection of ketamine hydrochloride (60 mg) and maintained by the administration of a mixture of sevoflurane, O2, and medical air after endotracheal intubation. The head was immobilized with a fixation device. Body temperature was maintained by Bair Hugger Model 505 (Arizant Healthcare, MN, USA) and monitored by an esophageal thermometer. ECG, heart rate, respiratory rate, and oxygen saturation were continuously monitored throughout the experiments. Blood pressure was monitored every 5 min.
as §1
During each PET measurement, arterial blood was collected continuously for 3 min using an automated blood-sampling system at a speed of 3.0 mL/min (Allog AB, Molndal, Sweden). Blood samples (1.0 to 2.5 mL) were drawn at 4, 15, 30, 60, 90, and 120 min after the radioligand injection for blood and plasma radioactivity and metabolite correction.
Regions of interest (ROI) for the thalamus, cerebellum, caudate, putamen, frontal cortex, temporal cortex, anterior cingulate cortex, pons, white matter, and the whole-brain contour were delineated on PET/MRI co-registered brain images for each monkey. Co-registrations and ROI delineations were performed using PMOD 3.0 (Pixel-Wise Modeling Computer Software, PMOD Group, Zurich, Switzerland). PET data were analyzed using several parameters such as percent injected dose (%ID) and percent standard uptake value (%SUV), where
%ID=total radioactivity in the whole brain (MBq)/injected radioactivity (MBq)×100
%SUV=radioactivity (MBq/cc)/injected radioactivity (MBq)×body weight g×100.
In the PET measurements using rhesus monkeys, the total distribution volume (VT) was calculated by a two-tissue compartment model as well.

[5] = system: GlyT1; test: PET measurements using a cynomolgus monkey; format: in vivo
Experimental: PET measurements were performed for 123 min immediately after intravenous (i.v.) injection of radioligand at baseline and after pretreatment with SSR504734. SSR504734 was administered over 15 min, starting 30 min before the radioligand injection. PET measurements were performed on two separate days at a 6-week interval. One baseline PET measurement and one PET measurement after pretreatment with 0.1 mg/kg of SSR504734 were performed on the first day. One baseline PET measurement and two PET measurements after pretreatment with 0.5 and 1.5 mg/kg of SSR504734 were performed on the second day.
Regions of interest (ROI) for the thalamus, cerebellum, caudate, putamen, frontal cortex, temporal cortex, anterior cingulate cortex, pons, white matter, and the whole-brain contour were delineated on PET/MRI co-registered brain images for each monkey. […] PET data were analyzed using several parameters such as percent injected dose (%ID) and percent standard uptake value (%SUV), where

[6] = baseline + blocking (1.5 mg/kg)
[7] = baseline + blocking (4.5 mg/kg)

## O=C(N[C@@H](c1ccccc1)[C@@H]1CCCCN1)c1cccc(C(F)(F)F)c1Cl [SSR504734, reference compound]
[1]; 1.5 mg/kg SSR504734, rhesus monkey 1, Lassen plot
  GlyT1 occupancy: 45% and 45.2%
[1]; 4.5 mg/kg SSR504734, rhesus monkey 2, Lassen plot
  GlyT1 occupancy: 74.3%
[1]; Omax assumed 100%
  Kd of occupancy-dose relationship: 1.7 mg/kg
[2]
  reduction of [11C]N-methyl-SSR504734 binding by blocker: prominent in the white matter and pons

## [11CH3]N1CCCCC1[C@@H](NC(=O)c1cccc(C(F)(F)F)c1Cl)c1ccccc1 (stereo partly drawn) [[^11 C]N-methyl-SSR504734, 2-chloro N-[(S)-{(S)-1-[^11 C]methylpiperidin-2-yl} (phenyl)methyl] 3-trifluoromethyl-benzamide]
[1]; baseline + blocking 1.5 mg/kg SSR504734, rhesus monkey 1, one value for all regions
  VND: 16.5
[1]; baseline + blocking 4.5 mg/kg SSR504734, rhesus monkey 2, one value for all regions
  VND: 7.5
[1]; [6]
  % of VND in VT ACC: 59%
  % of VND in VT FC: 52%
  % of VND in VT PUT: 55%
  % of VND in VT TC: 54%
[1]; baseline + blocking (1.5 mg/kg), caudate
  % of VND in VT CAU: 55%
[1]; baseline + blocking (1.5 mg/kg), cerebellum
  % of VND in VT CB: 50%
[1]; baseline + blocking (1.5 mg/kg), pons
  % of VND in VT Pons: 66%
[1]; [7]
  % of VND in VT ACC: 52%
  % of VND in VT FC: 48%
  % of VND in VT PUT: 53%
  % of VND in VT TC: 39%
[3]; radiochromatograms, 4 and 90 min
  metabolites detected in the plasma: more hydrophilic metabolites
[3]; within 90 min after injection
  fraction metabolized in plasma: over 70%
[4]; baseline
  rank order of regional brain uptake: thalamus > pons > putamen > frontal cortex≒temporal cortex > cerebellum> > white matter
[4]; pretreatment 1.5 and 4.5 mg/kg SSR504734
  uptake in the brain regions after pretreatment with SSR504734: increase
[4]; rhesus monkey 1, anterior cingulate cortex
  VT (baseline) ACC: 28.6
[4]; rhesus monkey 1, anterior cingulate cortex, after SSR504734 1.5 mg/kg
  VT (Blocking (1.5 mg/kg)) ACC: 22.5
[4]; rhesus monkey 1, anterior cingulate cortex, baseline to blocking with SSR504734 1.5 mg/kg
  % decrease of VT ACC: 21.3%
[4]; rhesus monkey 1, caudate
  VT (baseline) CAU: 26.2
[4]; rhesus monkey 1, caudate, after SSR504734 1.5 mg/kg
  VT (Blocking (1.5 mg/kg)) CAU: 22.0
[4]; rhesus monkey 1, caudate, baseline to blocking with SSR504734 1.5 mg/kg
  % decrease of VT CAU: 16.0%
[4]; rhesus monkey 1, cerebellum
  VT (baseline) CB: 23.7
[4]; rhesus monkey 1, cerebellum, after SSR504734 1.5 mg/kg
  VT (Blocking (1.5 mg/kg)) CB: 20.4
[4]; rhesus monkey 1, cerebellum, baseline to blocking with SSR504734 1.5 mg/kg
  % decrease of VT CB: 13.9%
[4]; rhesus monkey 1, frontal cortex
  VT (baseline) FC: 25.2
[4]; rhesus monkey 1, frontal cortex, after SSR504734 1.5 mg/kg
  VT (Blocking (1.5 mg/kg)) FC: 20.6
[4]; rhesus monkey 1, frontal cortex, baseline to blocking with SSR504734 1.5 mg/kg
  % decrease of VT FC: 18.3%
[4]; rhesus monkey 1, pons
  VT (baseline) Pons: 35.2
[4]; rhesus monkey 1, pons, after SSR504734 1.5 mg/kg
  VT (Blocking (1.5 mg/kg)) Pons: 26.8
[4]; rhesus monkey 1, pons, baseline to blocking with SSR504734 1.5 mg/kg
  % decrease of VT Pons: 23.9%
[4]; rhesus monkey 1, putamen
  VT (baseline) PUT: 26.7
[4]; rhesus monkey 1, putamen, after SSR504734 1.5 mg/kg
  VT (Blocking (1.5 mg/kg)) PUT: 22.8
[4]; rhesus monkey 1, putamen, baseline to blocking with SSR504734 1.5 mg/kg
  % decrease of VT PUT: 14.6%
[4]; rhesus monkey 1, temporal cortex
  VT (baseline) TC: 25.6
[4]; rhesus monkey 1, temporal cortex, after SSR504734 1.5 mg/kg
  VT (Blocking (1.5 mg/kg)) TC: 21.8
[4]; rhesus monkey 1, temporal cortex, baseline to blocking with SSR504734 1.5 mg/kg
  % decrease of VT TC: 14.8%
[4]; rhesus monkey 1, thalamus
  VT (baseline) THA: 31.0
[4]; rhesus monkey 1, thalamus, after SSR504734 1.5 mg/kg
  VT (Blocking (1.5 mg/kg)) THA: 29.6
[4]; rhesus monkey 1, thalamus, baseline to blocking with SSR504734 1.5 mg/kg
  % decrease of VT THA: 4.5%
[4]; rhesus monkey 1, whole brain
  VT (baseline) WB: 23.1
[4]; rhesus monkey 1, whole brain, after SSR504734 1.5 mg/kg
  VT (Blocking (1.5 mg/kg)) WB: 18.6
[4]; rhesus monkey 2, anterior cingulate cortex
  VT (baseline) ACC: 15.5
[4]; rhesus monkey 2, anterior cingulate cortex, after SSR504734 4.5 mg/kg
  VT (Blocking (4.5 mg/kg)) ACC: 9.0
[4]; rhesus monkey 2, anterior cingulate cortex, baseline to blocking with SSR504734 4.5 mg/kg
  % decrease of VT ACC: 41.9%
[4]; rhesus monkey 2, caudate
  VT (baseline) CAU: 17.0
[4]; rhesus monkey 2, caudate, after SSR504734 4.5 mg/kg
  VT (Blocking (4.5 mg/kg)) CAU: 9.2
[4]; rhesus monkey 2, caudate, baseline to blocking with SSR504734 4.5 mg/kg
  % decrease of VT CAU: 45.9%
[4]; rhesus monkey 2, cerebellum
  VT (baseline) CB: 12.8
[4]; rhesus monkey 2, cerebellum, after SSR504734 4.5 mg/kg
  VT (Blocking (4.5 mg/kg)) CB: 9.0
[4]; rhesus monkey 2, cerebellum, baseline to blocking with SSR504734 4.5 mg/kg
  % decrease of VT CB: 29.7%
[4]; rhesus monkey 2, frontal cortex
  VT (baseline) FC: 14.3
[4]; rhesus monkey 2, frontal cortex, after SSR504734 4.5 mg/kg
  VT (Blocking (4.5 mg/kg)) FC: 8.6
[4]; rhesus monkey 2, frontal cortex, baseline to blocking with SSR504734 4.5 mg/kg
  % decrease of VT FC: 39.9%
[4]; rhesus monkey 2, pons
  VT (baseline) Pons: 16.9
[4]; rhesus monkey 2, pons, after SSR504734 4.5 mg/kg
  VT (Blocking (4.5 mg/kg)) Pons: 10.9
[4]; rhesus monkey 2, pons, baseline to blocking with SSR504734 4.5 mg/kg
  % decrease of VT Pons: 35.5%
[4]; rhesus monkey 2, putamen
  VT (baseline) PUT: 15.8
[4]; rhesus monkey 2, putamen, after SSR504734 4.5 mg/kg
  VT (Blocking (4.5 mg/kg)) PUT: 10.1
[4]; rhesus monkey 2, putamen, baseline to blocking with SSR504734 4.5 mg/kg
  % decrease of VT PUT: 36.1%
[4]; rhesus monkey 2, temporal cortex
  VT (baseline) TC: 12.3
[4]; rhesus monkey 2, temporal cortex, after SSR504734 4.5 mg/kg
  VT (Blocking (4.5 mg/kg)) TC: 8.9
[4]; rhesus monkey 2, temporal cortex, baseline to blocking with SSR504734 4.5 mg/kg
  % decrease of VT TC: 27.6%
[4]; rhesus monkey 2, thalamus
  VT (baseline) THA: 15.7
[4]; rhesus monkey 2, thalamus, after SSR504734 4.5 mg/kg
  VT (Blocking (4.5 mg/kg)) THA: 11.9
[4]; rhesus monkey 2, thalamus, baseline to blocking with SSR504734 4.5 mg/kg
  % decrease of VT THA: 24.2%
[4]; rhesus monkey 2, whole brain
  VT (baseline) WB: 12.6
[4]; rhesus monkey 2, whole brain, after SSR504734 4.5 mg/kg
  VT (Blocking (4.5 mg/kg)) WB: 8.5
[4]; rhesus monkey 2, whole brain, baseline to blocking with SSR504734 4.5 mg/kg
  % decrease of VT WB: 32.5%
[5]; baseline
  rank order of regional brain uptake: thalamus > pons > cerebellum ≒ putamen > cortical regions > white matter
[5]; baseline, N = 2
  time of whole brain peak: 24 min
[5]; pretreatment 0.1 to 1.5 mg/kg SSR504734, dose-dependent
  radioactivity level in brain after pretreatment with SSR504734: increased in all regions

From paper PMC3531252 (EJNMMI Research, 2012)
